From PMC12481569, “Novltex: A New Class of Antibiotics with Potent Activity against Multidrug-Resistant Bacterial Pathogens–Design, Synthesis, and Biological Evaluation” (Journal of Medicinal Chemistry, 2025)
Converted amounts (≈) assume the structure as drawn. Positions of bridges follow the written chain, without caps; N, C: chain ends. Non-standard residues stand in square brackets, D forms with d. Residues, ends and D or L forms follow the SMILES beside them. dCha = N[C@H](CC1CCCCC1)C(=O)O

Columns and labels:
[1] = tested on: Multidrug-Resistant (MDR) S. aureus; test: microbe, parasite or virus in culture; settings: MHB, 0.002% polysorbate 80, 37 °C, 24 h, daptomycin with 50 mg/L calcium chloride
Description: We further evaluated analogue 12 against multidrug-resistant (MDR) strains of S. aureus (acquired from the NARSA collection) and MDR E. faecium (acquired from International Health Management Associates, IHMA, Europe Sarl), comparing its activity to various classes of clinically used antibiotics (Table ).
MICs were performed as previously reported 4. For MIC testing all peptides were dissolved in DMSO.
Bacterial cultures were grown overnight on Mueller-Hinton Agar (MHA) plates and adjusted to a final inoculum of 10^5 – 10^6 CFU/mL. 100 µl of ino culum in Meuller -Hinton broth (MHB) was mixed with equal volume of peptides (dissolved in MHB) at 2x their concentration in a 96 well plate . For daptomycin MIC determination, the same protocol was followed with the addition of 50 mg/L calcium chloride to the medium. MIC values were determined in the media contain ing polysorbate 80 (0.002%, v/v) to prevent non -specific adsorption of the peptides to plastic surfaces. The final peptides concentrations ranged from 0.0625 – 32 µg/mL. The 96 well plates were then incubated at 37 °C for 24 h. All the experiments were performed in two independent duplicates and the MIC was determined as the lowest concentration in which no visible growth was observed.
Antibiotics MIC break points ( µg/mL)
Table. S4: Susceptibility cut-off values (MIC breakpoints) for various clinical antibiotics. […]

[2] = tested on: human primary dermal fibroblasts; test: Cytotoxicity, MTS-based assay; type: cell-based; settings: up to 50 μg/mL, 24 or 48 h, three independent experiments in triplicate
Description: 4 Cytotoxicity evaluation of analogue 12. Human primary dermal fibroblasts (A), liver cell line HepG2 (B), and kidney cell line HEK293T (C) cells (5 × 10^3 cells/well in 96-well plates) were treated with increasing concentrations of analogue 12 or 1 μM staurosporine (STS, used as a positive toxicity control) for 24 or 48 h, as indicated. Viability of cells was determined using an MTS-based assay. Results (% cell viability) are the mean ± SD of three independent experiments performed in triplicate. (D) Freshly collected human red blood cells (RBCs) were exposed to increasing concentrations of 12 or Triton X-100 (TX), as indicated, for 1 h. Hemolytic activity (% hemolysis) was determined by spectrophotometrically measuring the release of hemoglobin compared to that with TX (used as a positive control). Results are the mean ± SD of 4 independent experiments performed in duplicate using blood samples from four different anonymous healthy donors. […]
Bacterial cultures were grown overnight on Mueller-Hinton Agar (MHA) plates and adjusted to a final inoculum of 10^5 – 10^6 CFU/mL. […] MIC values were determined in the media contain ing polysorbate 80 (0.002%, v/v) to prevent non -specific adsorption of the peptides to plastic surfaces. […] All the experiments were performed in two independent duplicates and the MIC was determined as the lowest concentration in which no visible growth was observed. […]

[3] = Lipid II binding, spot-on-lawn assays on S. aureus ATCC 33591; design: species or system Staphylococcus aureus; settings: overnight 37 °C
Excerpt: 6 Spot-on-lawn assays to evaluate binding of Lipid II with analogue 12 on S. aureus ATCC 33591. (A) Analogue 12 was premixed with increasing ratios of lipid II (0.5 to 4 equiv) and spotted onto a seeded lawn of S. aureus 33591. Lipid II and analogue 12 were also spotted independently. The position of the analogue 12–lipid II mixture is marked in red. (B) Daptomycin was used as a negative control. Asterisks denote the positions of analogue 12 (black), lipid II (blue), and daptomycin (green) additions.
Analogue 12 was premixed with increasing ratios of lipid II (0.5 to 4 equiv) for 10 min prior to spotting onto agar plates seeded with a lawn of S. aureus ATCC 33591 and incubated overnight.
XII. Lipid II binding determination of analogue 12
Previously reported methods were used to determine the lipid II binding of analogue 126,7. The lipid II used in this study was prepared by chemical synthesis and its preparation and purification has been […]
A: An overnight culture of S. aureus ATCC 33591 was added to LB agar (45 °C) at a final concentration of 0.1% (vol/vol) and pour-plated into 90 mm petri dishes. Binding of 12 to purified lipid II was assessed using a spot-on-lawn assay. Premixed solutions (5 µL) containing analogue 12 (8 µg) with varying concentration of lipid II were spotted onto the agar, alongside individual controls of 12 and lipid II.
After drying, plates were incubated overnight at 37 °C. This assay was performed in duplicates.
B: To assess the interaction between analogue 12 and lipid II, a culture of S. aureus ATCC 33591 was grown overnight in LB broth and inoculated into LB agar at a final concentration of 1% (v/v) at 45°C.
This mixture was evenly distributed into 90mm petri dishes. Antibiotic inhibition haloes were previously determined by spotting analogue 12 and daptomycin (5 μL,8 µg/mL) onto agar plates and measuring the diameter of the halo after overnight incubation at 37 °C . The binding affinity of analogue 12 and lipid II was later examined by applying purified lipid II (300 μM, 2 μL) to the edge of the antibiotic halo. Analogue 12 and Daptomycin were applied to the inoculated agar plate at a spaced distance, once the antimicrobial solution drops had dried, lipid II was spotted on the edge of the inhibition halo. The plates were then incubated overnight at 37 °C. […]

With `CC(C)C[C@@H]1NC(=O)[C@H](C)NC(=O)[C@H](NC(=O)[C@H](CO)NC(=O)[C@@H](CCCCN)NC(=O)[C@@H](CC2CCCCC2)NC(=O)[C@@H](N)Cc2ccccc2)[C@H](C)OC(=O)[C@H](CC(C)C)NC1=O` [analogue 12, Leu2Cha–Novltex] (H-F[dCha][dK]S[dT]ALL; ester 5-C) the “MIC, Staphylococcus aureus NR 45914” value ([1]; MDR strain NR 45914) was 0.125 µg/mL (≈ 0.137 µM), the “MIC, Staphylococcus aureus NR 45926” value ([1]; MDR strain NR 45926) was 0.125 µg/mL (≈ 0.137 µM) and the “MIC, Staphylococcus aureus NR 45930” value ([1]; MDR strain NR 45930) was 0.125 µg/mL (≈ 0.137 µM). The “MIC, Staphylococcus aureus NR 46062” value ([1]; MDR strain NR 46062) was 0.063 µg/mL (≈ 0.0689 µM), the “cytotoxicity (cell viability), primary dermal fibroblasts” value [2] was “no major cytotoxicity” and the “zone of inhibition, spot-on-lawn” value ([3]; absence of lipid II, 8 µg spotted, duplicates) was “clear and substantial zone of inhibition”. For the same compound, the “zone of inhibition, spot-on-lawn, premixed with lipid II” value ([3]; lipid II 1:1 ratio, premixed 10 min) was “antimicrobial activity was completely abolished”, the “halo distortion on addition of lipid II” value ([3]; lipid II (300 μM, 2 μL) at the edge of the antibiotic halo, duplicates) was “formed a noncircular spot” and the “zone of inhibition, spot-on-lawn, premixed with lipid II” value ([3]; lipid II ratio 0.5, premixed 10 min) was “only a faint zone remained”.
